{"source": "paper PMC11727334", "about": "“A self-immolative Kdn-glycoside substrate enables high-throughput screening for inhibitors of Kdnases” (Glycobiology, 2024)", "key": {"A. fumigatus": {"test_system": "A. fumigatus", "design": "method as in Nesbitt et al. 2018", "conditions": "ref Nesbitt et al. 2018, cited from earlier work"}, "[1]": {"target": "T1, Kdnase produced by A. fumigatus (AfK) (Aspergillus fumigatus, UniProt Q4WQS0)", "T1 construct": "AfK was expressed and purified as described by Telford et al; made in house", "T1 sequence (Q4WQS0 21-406)": "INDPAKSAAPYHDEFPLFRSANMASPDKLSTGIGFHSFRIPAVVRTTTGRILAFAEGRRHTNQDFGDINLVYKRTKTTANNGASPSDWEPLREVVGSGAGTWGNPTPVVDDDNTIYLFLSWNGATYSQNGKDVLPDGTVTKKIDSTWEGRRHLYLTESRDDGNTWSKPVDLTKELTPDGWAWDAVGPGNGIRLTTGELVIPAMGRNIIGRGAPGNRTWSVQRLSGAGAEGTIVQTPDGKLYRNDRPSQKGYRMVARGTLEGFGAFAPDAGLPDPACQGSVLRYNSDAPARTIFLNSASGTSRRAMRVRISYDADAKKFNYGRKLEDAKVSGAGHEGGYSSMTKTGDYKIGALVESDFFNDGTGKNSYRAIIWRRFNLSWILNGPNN", "test": "Inhibition assay of recombinant AfK using 4MU-Kdn as substrate", "assay_type": "biochemical", "conditions": "Fig. S10; read-out: IC50", "source_text": "We purchase fresh commercial material for compounds 13 and 14 and performed inhibition assays using recombinant AfK (Methods, Fig. S8, Supporting Information). We determined IC50 values in quadruplicate using 4MU-Kdn as the substrate ([Yeung et al. 2013]). […] We submitted both compounds to a pan-assay interference compounds (PAINS) filter, a compilation of chemical substructures known to show promiscuous biological activities ([Baell and Nissink 2018]). […] We performed standard inhibition assays as described earlier using inhibitor 13 and these recombinant enzymes. […] We also tested inhibitor 13 with the sialidase MvNA, the closest structural homologue to AfK, that is known to cleave a multitude of substrates including Kdn glycosides ([Telford et al. 2011]).\nEach 200 μM reaction mixture was incubated at rt for 2 min prior to the addition of purified sialidase. Inhibitor was added to the reaction mixture and allowed to incubate at rt between 0–60 min in 100 mM sodium acetate buffer pH 4.0 and 0.01% BSA prior to the addition of substrate. The kinetic parameters were determined from initial rate measurements using a substrate concentration of Km/4. The progress of the reaction was continuously monitored for 15 min using a fluorescence spectrophotometer (BioTek Neo 2) and excitation and emission wavelengths of 360 and 450 nm, respectively."}, "AfK [2]": {"target": "T2, AfK (Aspergillus fumigatus, UniProt Q4WQS0)", "T2 construct": "AfK was expressed and purified as described by Telford et al; made in house", "T2 sequence (Q4WQS0 21-406)": "as above", "conditions": "Table S1; ref Telford et al., J Biol Chem, 2011, 10783; cited from earlier work"}, "[3]": {"target": "T1, Kdnase produced by A. fumigatus (AfK)", "design": "method as in Telford et al. (3)", "conditions": "Table S2; ref Telford et al. (3); cited from earlier work"}, "TrK": {"test_system": "TrK", "test": "Differential scanning fluorimetry (DSF) thermal shift assay, TrK", "assay_type": "binding, Trichophyton rubrum", "conditions": "inhibitor 500 µM", "source_text": "(§1) We next used a separate biophysical technique, differential scanning fluorimetry (DSF), to confirm that these compound bind to the various Kdnases. Specifically, we measured protein melting temperatures in the presence of Kdn2en (2) and candidate ligands 13 and 17 (Fig. 3D). […] We repeated this DSF assay on AtK and TrK and we observed similar trends in thermal shifts (Fig. S14 and Tables S2,S3 and S4, Supporting Information). […] Accordingly, further follow up on this compound would need to be pursued with an awareness of this possibility.\n(§2) Table S3. Differential scanning fluorometry-based (DSF) assay for inhibitors 2, 13, and 17 binding to Af, At, Tr and MvNA. Protein thermal shifts(ΔTm) using DMSO (2.5%), and inhibitors 2, 13, and 17 at 500 µM against the Kdnase of Af, At, Tr and MvNA. Assay done using 5–10 µM enzyme and 100 mM pH 4.0 NaOAc (pH 5.5 MvNA). A temperature range of 25°C to 95°C was used with a gradient of 0.05°C/sec. […]\n(§3) Table S4. Thermal shifts (ΔTm) for stabilization of AfK, AtK, TrK and MvNA on inhibitor binding relative to the DMSO (2.5%) control. […]"}, "AfK [4]": {"target": "T2, AfK", "test": "Differential scanning fluorimetry (DSF) thermal shift assay, AfK", "assay_type": "binding", "source_text": "as §1, §2, §3"}, "AtK": {"test_system": "AtK", "test": "Differential scanning fluorimetry (DSF) thermal shift assay, AtK", "assay_type": "binding, Aspergillus terreus", "conditions": "inhibitor 500 µM", "source_text": "as §1, §2, §3"}, "MvNA": {"target": "MvNA (Micromonospora viridifaciens, UniProt Q02834)", "sequence (Q02834 38-647)": "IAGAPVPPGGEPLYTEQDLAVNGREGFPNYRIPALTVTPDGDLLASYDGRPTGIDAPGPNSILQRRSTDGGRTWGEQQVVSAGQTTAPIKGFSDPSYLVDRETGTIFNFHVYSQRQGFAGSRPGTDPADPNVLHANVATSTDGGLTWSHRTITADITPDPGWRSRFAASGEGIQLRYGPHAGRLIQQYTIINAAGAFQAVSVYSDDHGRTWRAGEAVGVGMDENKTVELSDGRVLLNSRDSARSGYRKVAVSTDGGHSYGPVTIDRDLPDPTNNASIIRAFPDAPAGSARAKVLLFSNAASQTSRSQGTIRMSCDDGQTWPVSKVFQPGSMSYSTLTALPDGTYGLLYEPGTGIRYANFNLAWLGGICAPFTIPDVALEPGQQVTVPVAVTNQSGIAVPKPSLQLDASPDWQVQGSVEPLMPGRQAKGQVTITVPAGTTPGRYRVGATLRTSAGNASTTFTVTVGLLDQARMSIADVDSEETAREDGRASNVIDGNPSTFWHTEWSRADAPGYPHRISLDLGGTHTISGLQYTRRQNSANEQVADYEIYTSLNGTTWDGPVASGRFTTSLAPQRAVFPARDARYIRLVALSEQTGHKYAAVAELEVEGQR", "test": "Differential scanning fluorimetry (DSF) thermal shift assay, MvNA", "assay_type": "binding", "conditions": "inhibitor 500 µM", "protocol": "as §2, §3"}, "[5]": {"conditions": "100 mM pH 4.0 NaOAc, 5–10 µM enzyme"}}, "note": "Like-named read-outs stand apart in the source and are kept apart here."}
{"smiles": "C[C@@H]1[C@H](O)[C@@H](C)/C=C/C=C/C=C/C=C/C=C/C=C/C=C/[C@H](O[C@@H]2O[C@H](C)[C@@H](O)[C@H](N)[C@@H]2O)C[C@@H]2O[C@](O)(C[C@@H](O)C[C@@H](O)[C@H](O)CC[C@@H](O)C[C@@H](O)CC(=O)O[C@H]1C)C[C@H](O)[C@H]2C(=O)O", "note": "[Amphotericin B]", "values": [{"measurement": "survival outcome", "setting": "A. fumigatus; immunocompromised mice infected with AfK KO spores", "result": "improved survival rate"}, {"measurement": "survival outcome", "setting": "A. fumigatus; immunocompromised mice infected with wild-type (WT) A. fumigatus spores", "result": "complete mortality"}]}
{"smiles": "O=C(O)/C=C/c1ccc(O)c(O)c1", "note": "[caffeic acid, reference compound]", "values": [{"measurement": "IC50", "setting": "[1]", "result": "~500", "unit": "µM"}]}
{"smiles": "Cc1cc(=O)oc2cc(O[C@]3(C(=O)O)C[C@H](O)[C@@H](O)[C@H]([C@H](O)[C@H](O)CO)O3)ccc12", "note": "[compound 1, 4-methylumbelliferyl 3-deoxy-D-glycero-D-galacto-non-2-ulopyranosidonic acid]", "values": [{"measurement": "Km", "setting": "AfK [2]", "result": "230 ± 20", "unit": "µM"}, {"measurement": "kcat", "setting": "AfK [2]", "result": "41 ± 4", "unit": "s–1"}]}
{"smiles": "O=C(O)C1=C[C@H](O)[C@@H](O)[C@H]([C@H](O)[C@H](O)CO)O1", "note": "[compound 2, Kdn2en, reference compound]", "values": [{"measurement": "IC50", "setting": "[3]", "result": 556, "unit": "µM"}, {"measurement": "Ki", "setting": "[3]", "result": 102, "unit": "µM"}, {"measurement": "Thermal shift (ΔTm) relative to DMSO (2.5%) control", "setting": "TrK; Table S4", "result": "+15.0 ± 0.2 °C"}, {"measurement": "protein melting temperature (DSF, Table S3)", "setting": "TrK; [5]", "result": "49.7 ± 0.2", "unit": "°C"}, {"measurement": "effect on thermal stability of the folded enzyme (DSF, in words)", "setting": "AfK [4]; AfK", "result": "positive unfolding temperature shifts"}, {"measurement": "protein melting temperature (DSF, Table S3)", "setting": "AfK [4]; inhibitor 500 µM, 100 mM pH 4.0 NaOAc, 5–10 µM enzyme", "result": "53.2 ± 0.1", "unit": "°C"}, {"measurement": "ΔTm at 500 µM", "setting": "AfK [4]; read-out: Thermal shift (ΔTm) relative to DMSO (2.5%) control", "result": 1.7, "unit": "°C"}, {"measurement": "Thermal shift (ΔTm) relative to DMSO (2.5%) control", "setting": "AtK; Table S4", "result": "+3.4 ± 0.1 °C"}, {"measurement": "protein melting temperature (DSF, Table S3)", "setting": "AtK; [5]", "result": "55.3 ± 0.1", "unit": "°C"}, {"measurement": "ΔTm at 500 µM", "setting": "MvNA; Table S4, read-out: Thermal shift (ΔTm) relative to DMSO (2.5%) control", "result": 0.5, "unit": "°C"}, {"measurement": "protein melting temperature (DSF, Table S3)", "setting": "MvNA; pH 5.5, 5–10 µM enzyme", "result": "54.4 ± 0.1", "unit": "°C"}]}
